This is an account of results in patent US5879942A, “Processing enzyme for polypeptide” (Kabushiki Kaisha Hayashibara Seibutsu Kagaku Kenkyujo, priority 1996, dated 1999).

This test concerns the target T1, the present enzyme (Homo sapiens, UniProt P29466).
T1 construct: Using the anti-human ICE-p20 antibody and the antihuman ICE-p10 antibody; endogenous in cells
T1 sequence (P29466 120-297 limits assumed): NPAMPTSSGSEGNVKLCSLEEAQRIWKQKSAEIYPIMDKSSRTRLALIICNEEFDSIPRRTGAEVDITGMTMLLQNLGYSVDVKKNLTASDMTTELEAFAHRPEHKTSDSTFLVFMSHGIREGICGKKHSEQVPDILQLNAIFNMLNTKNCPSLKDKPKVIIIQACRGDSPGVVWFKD
T1 sequence (P29466 317-404 limits assumed): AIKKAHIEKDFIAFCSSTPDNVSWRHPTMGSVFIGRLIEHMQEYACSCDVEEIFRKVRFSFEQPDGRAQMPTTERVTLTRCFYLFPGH
As to the kind of experiment: Activity of inhibitory agent on enzyme: conversion of precursor, Western Blotting. To be noted: for band corresponding to the active form on Western Blotting: enzyme of Example 1 (THP-1 cells), 37° C. for 3 hours; for Inhibitory agent: enzyme obtainable from a human hematopoietic cell, general property; for enzyme activity inhibited: enzyme of Example 7 (HL-60 cells), methods in Examples 2-5. In kind it is biochemical. How it is done:
A substrate solution was prepared by dissolving the precursor of the polypeptide in Example 4-1 in 100 mM Hepes buffer (pH 7.4), containing 10 v/v % glycerol, 0.1 w/v % CHAPS and 2 mM dithiothreitol, to give a concentration of 500 nM, and mixed with 350 units/ml of the enzyme solution in Example 1, followed by the incubation at 37° C. At 0 min, 10 min, 30 min, one hour, 3 hours, 6 hours and 18 hours after initiating the incubation, a portion of the reaction mixture was sampled at each sampling time and admixed with iodoacetamide to give a final concentration of 200 μg/ml to suspend the reaction. The Western Blotting method using the monoclonal antibody, as disclosed in Japanese Patent Application No.231,598/96 applied by the same applicant of the present invention, was applied to the reaction mixture to study the change on passage of time during the conversion of the precursor into the active form.
In the conversion method for precursor in Example 4-2, the present enzyme in Example 1 was admixed with 5 μM Ac-YVAD-CHO or 650 μM iodoacetamide and reacted at 37° C. for 3 hours.
(In general: Immunoblotting shows a protein as a band on a membrane.)

On to `NC(=O)CI` [iodoacetamide], for which the Inhibitory agent entry is listed as “inhibited” and the enzyme activity inhibited result is listed as “inhibited”. The “band corresponding to the active form on Western Blotting” value (650 μM iodoacetamide) is on record as “no band corresponding to the active form was detected”.
As to `CC(=O)N[C@@H](Cc1ccc(O)cc1)C(=O)N[C@H](C(=O)N[C@@H](C)C(=O)N[C@H](C=O)CC(=O)O)C(C)C` [Ac-YVAD-CHO, acetyl-L-tyrosyl-L-varyl-L-alanyl-L-aspart-1-al], the Inhibitory agent result was “inhibited” and the enzyme activity inhibited entry was “inhibited”. Besides, the “band corresponding to the active form on Western Blotting” value (5 μM Ac-YVAD-CHO) is recorded as “no band corresponding to the active form was detected”.
